In patent US20220281831A1, “FUSED-GLUTARIMIDE CRBN LIGANDS AND USES THEREOF” (Kymera Therapeutics, Inc., priority 2019, published 2022):
pIC50: −log10 of the molar value.

Biological target: His-tagged CRBN-DDB1 complex (Homo sapiens, UniProt Q96SW2)
Assay: Time-Resolved Fluorescence Resonance Energy Transfer (TR-FRET / HTRF) CRBN binding assay, displacement of Cy5-labeled thalidomide
Settings: His-CRBN-DDB1, Cy5-thalidomide 8 nM, 1 hour room temperature
Experimental: Time-Resolved Fluorescence Resonance Energy Transfer (TR-FRET) Assay.
Equal volumes of His-tagged CRBN-DDB1 complex (56 nM) was mixed with Eu-cryptate labeled Anti-6HIS-monoclonal antibody (50× dilution from the commercial stock solution, Vender: Cisbio, Cat. #61HI2KLA) in a final buffer containing 20 mM HEPES pH 7.0, 150 mM NaCl, 0.005% Tween-20. […] The mixture were incubated at room temperature for 1 hour. FRET signals were measured on an EnVision plate reader (Perkin Elmer) by exciting at 340 nm and recording emission at both 615 nm as no FRET control and 665 nm as the FRET signals with a 60 microsecond delay. FRET efficiency was calculated as the ratio of fluorescent signals at […]. Quantitative loss of FRET efficiency as a function of compound concentrations was fitted by a four-parameter Logistic Function using GraphPad Prism 7.0 and the IC50 values were reported for each compound.
The compound numbers correspond to the compound numbers in Table 1.

Chain of His-tagged CRBN-DDB1 complex (Q96SW2 whole entry): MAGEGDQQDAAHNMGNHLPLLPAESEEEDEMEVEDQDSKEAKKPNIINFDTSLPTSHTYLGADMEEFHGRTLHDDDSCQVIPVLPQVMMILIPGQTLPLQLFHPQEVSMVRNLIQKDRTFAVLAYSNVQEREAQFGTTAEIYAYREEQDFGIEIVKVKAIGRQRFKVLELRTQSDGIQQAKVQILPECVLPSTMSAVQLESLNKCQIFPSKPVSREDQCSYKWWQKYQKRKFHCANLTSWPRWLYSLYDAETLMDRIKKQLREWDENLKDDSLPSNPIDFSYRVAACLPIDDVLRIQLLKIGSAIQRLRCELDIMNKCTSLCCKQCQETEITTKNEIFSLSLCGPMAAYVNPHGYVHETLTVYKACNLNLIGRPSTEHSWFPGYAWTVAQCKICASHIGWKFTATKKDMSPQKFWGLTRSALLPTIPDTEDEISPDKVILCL
Chain of His-tagged CRBN-DDB1 complex (Q16531 whole entry partner): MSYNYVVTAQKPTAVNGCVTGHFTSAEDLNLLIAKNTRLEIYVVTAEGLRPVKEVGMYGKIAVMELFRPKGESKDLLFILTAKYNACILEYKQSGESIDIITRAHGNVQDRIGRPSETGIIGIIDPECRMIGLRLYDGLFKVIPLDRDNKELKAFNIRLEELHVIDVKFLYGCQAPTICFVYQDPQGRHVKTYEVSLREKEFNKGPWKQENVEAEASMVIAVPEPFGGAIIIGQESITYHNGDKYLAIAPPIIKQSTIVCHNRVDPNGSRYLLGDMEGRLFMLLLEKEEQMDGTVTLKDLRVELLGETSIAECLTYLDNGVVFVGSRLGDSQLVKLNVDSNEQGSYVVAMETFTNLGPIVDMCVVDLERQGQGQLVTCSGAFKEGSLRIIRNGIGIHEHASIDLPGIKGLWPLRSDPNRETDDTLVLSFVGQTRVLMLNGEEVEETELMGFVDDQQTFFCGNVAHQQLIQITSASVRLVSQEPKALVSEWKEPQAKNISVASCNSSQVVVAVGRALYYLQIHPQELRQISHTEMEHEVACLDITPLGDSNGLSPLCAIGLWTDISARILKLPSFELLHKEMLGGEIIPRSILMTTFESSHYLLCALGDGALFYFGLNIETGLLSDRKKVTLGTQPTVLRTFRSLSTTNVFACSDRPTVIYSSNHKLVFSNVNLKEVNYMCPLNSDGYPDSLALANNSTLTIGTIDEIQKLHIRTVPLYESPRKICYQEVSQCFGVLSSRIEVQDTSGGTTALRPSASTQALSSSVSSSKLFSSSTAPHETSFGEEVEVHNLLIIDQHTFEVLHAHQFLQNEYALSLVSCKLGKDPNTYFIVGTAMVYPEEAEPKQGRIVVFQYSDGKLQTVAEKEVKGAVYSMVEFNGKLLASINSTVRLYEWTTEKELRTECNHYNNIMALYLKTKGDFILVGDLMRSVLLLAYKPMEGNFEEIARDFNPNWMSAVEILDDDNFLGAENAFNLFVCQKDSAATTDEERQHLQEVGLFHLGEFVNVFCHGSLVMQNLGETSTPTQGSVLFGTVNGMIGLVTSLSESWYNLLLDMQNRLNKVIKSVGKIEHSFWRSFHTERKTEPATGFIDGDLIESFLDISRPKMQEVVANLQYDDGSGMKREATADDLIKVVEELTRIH

Row | Compound | pIC50
1 | O=C1CC2(CCN(Cc3ccc(-c4ccccc4)cc3)CC2)CC(=O)N1 [Compound I-346] | < 4.00
2 | O=C1CC2(CCN(Cc3cccc(O)c3)CC2)CC(=O)N1 [Compound I-347] | < 4.00
3 | O=C1CC2(CCN(C(=O)c3cccs3)CC2)CC(=O)N1 [Compound I-348] | < 4.00
4 | Cc1cccc(CN2CCC3(CC2)CC(=O)NC(=O)C3)n1 [Compound I-349] | < 4.00
5 | O=C1CC2(CCN(C(=O)c3cccnn3)CC2)CC(=O)N1 [Compound I-350] | < 4.00
6 | O=C1CC2(CCN(C3CCCC3)CC2)CC(=O)N1 [Compound I-351] | < 4.00
7 | O=C1CC2(CCN(C(=O)Cc3ccccn3)CC2)CC(=O)N1 [Compound I-352] | < 4.00
8 | O=C1CC2(CCN(C(=O)c3cnco3)CC2)CC(=O)N1 [Compound I-353] | < 4.00
9 | O=C1CC2(CCN(C(=O)c3c[nH]cn3)CC2)CC(=O)N1 [Compound I-354] | < 4.00
10 | COc1ccc(C(=O)N2CCC3(CC2)CC(=O)NC(=O)C3)cn1 [Compound I-355] | < 4.00
11 | Cc1ccc(CN2CCC3(CC2)CC(=O)NC(=O)C3)o1 [Compound I-356] | < 4.00
12 | O=C1CC2(CCN(CCc3ccccc3)CC2)CC(=O)N1 [Compound I-357] | < 4.00
13 | Cc1ncoc1C(=O)N1CCC2(CC1)CC(=O)NC(=O)C2 [Compound I-358] | < 4.00
14 | O=C1CC2(CCN(C(=O)c3cnccn3)CC2)CC(=O)N1 [Compound I-359] | < 4.00
15 | O=C1CC2(CCN(C(=O)c3ccco3)CC2)CC(=O)N1 [Compound I-360] | < 4.00
16 | O=C1CC2(CCN(C(=O)c3ccc4ccoc4c3)CC2)CC(=O)N1 [Compound I-361] | < 4.00
17 | O=C1CC2(CCN(C(=O)C3CC3)CC2)CC(=O)N1 [Compound I-362] | < 4.00
18 | O=C1CC2(CCN(Cc3ccncc3)CC2)CC(=O)N1 [Compound I-363] | < 4.00
19 | O=C1CC2(CCN(C(=O)c3cnon3)CC2)CC(=O)N1 [Compound I-364] | < 4.00
20 | Cc1cccc(C(=O)N2CCC3(CC2)CC(=O)NC(=O)C3)c1 [Compound I-365] | < 4.00
21 | O=C1CC2(CCN(C(=O)c3cncnc3)CC2)CC(=O)N1 [Compound I-366] | < 4.00

Other lines, results leading:

Row | pIC50 | Compound
22 | 4.00 to 4.52 | O=C1CC2(CCN(Cc3ccc([N+](=O)[O-])s3)CC2)CC(=O)N1 [Compound I-330]
23 | < 4.00 | O=C1CC2(CCN(Cc3cccc4ccccc34)CC2)CC(=O)N1 [Compound I-331]
24 | < 4.00 | CN(C)c1ccc(CN2CCC3(CC2)CC(=O)NC(=O)C3)cc1 [Compound I-332]
25 | < 4.00 | O=C1CC2(CCN(Cc3cc4ccccc4o3)CC2)CC(=O)N1 [Compound I-333]
26 | < 4.00 | O=C1CC2(CCN(C(=O)COCc3ccccc3)CC2)CC(=O)N1 [Compound I-334]
27 | < 4.00 | CCCCOc1ccc(CN2CCC3(CC2)CC(=O)NC(=O)C3)cc1 [Compound I-335]
28 | < 4.00 | O=C1CC2(CCN(Cc3ccc(F)c4ccccc34)CC2)CC(=O)N1 [Compound I-336]
29 | < 4.00 | O=C1CC2(CCN(Cc3ccc[nH]3)CC2)CC(=O)N1 [Compound I-337]
30 | < 4.00 | Cc1ccc(CN2CCC3(CC2)CC(=O)NC(=O)C3)cc1 [Compound I-338]
31 | < 4.00 | O=C1CC2(CCN(Cc3c[nH]cn3)CC2)CC(=O)N1 [Compound I-339]
32 | < 4.00 | Cc1cc(C(=O)N2CCC3(CC2)CC(=O)NC(=O)C3)ccn1 [Compound I-340]
33 | < 4.00 | O=C1CC2(CCN(C(=O)c3ccn[nH]3)CC2)CC(=O)N1 [Compound I-341]
34 | < 4.00 | O=C1CC2(CCN(Cc3c[nH]c4ccccc34)CC2)CC(=O)N1 [Compound I-342]
35 | < 4.00 | O=C1CC2(CCN(Cc3ccc(Cl)cc3)CC2)CC(=O)N1 [Compound I-343]
36 | < 4.00 | O=C1CC2(CCN(Cc3ccc(Oc4ccccc4)cc3)CC2)CC(=O)N1 [Compound I-344]
37 | < 4.00 | COc1ccc(CN2CCC3(CC2)CC(=O)NC(=O)C3)cn1 [Compound I-345]
